# Columns and labels:
# SMARCA2 = molecular target: T1, SMARCA2 (Homo sapiens, UniProt P51531); test: SMARCA2 Cellular Degradation Assay (Western blot analysis on Jess platform); format: cell-based; conditions: for DC50 / Dmax: cellular degradation; for Fold Selectivity SMARCA4/2: ratio DC50 SMARCA4 / DC50 SMARCA2
# T1 construct: endogenous in cells
# Outline: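 Lysates of cells extracted from tumors, 5 μg total protein per capillary, were probed for SMARCA2 and β-actin by capillary Western on Jess using chemiluminescence and fluorescence detection. SMARCA2 peak area was background-subtracted and normalized to actin, then expressed as % remaining relative to vehicle control.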
# SMARCA4 = molecular target: T2, SMARCA4 (Homo sapiens, UniProt P51532); test: Cellular degradation assay, SMARCA4 (Table 1); format: cell-based
# T2 construct: endogenous in cells
# T2 sequence (P51532 whole entry, species assumed): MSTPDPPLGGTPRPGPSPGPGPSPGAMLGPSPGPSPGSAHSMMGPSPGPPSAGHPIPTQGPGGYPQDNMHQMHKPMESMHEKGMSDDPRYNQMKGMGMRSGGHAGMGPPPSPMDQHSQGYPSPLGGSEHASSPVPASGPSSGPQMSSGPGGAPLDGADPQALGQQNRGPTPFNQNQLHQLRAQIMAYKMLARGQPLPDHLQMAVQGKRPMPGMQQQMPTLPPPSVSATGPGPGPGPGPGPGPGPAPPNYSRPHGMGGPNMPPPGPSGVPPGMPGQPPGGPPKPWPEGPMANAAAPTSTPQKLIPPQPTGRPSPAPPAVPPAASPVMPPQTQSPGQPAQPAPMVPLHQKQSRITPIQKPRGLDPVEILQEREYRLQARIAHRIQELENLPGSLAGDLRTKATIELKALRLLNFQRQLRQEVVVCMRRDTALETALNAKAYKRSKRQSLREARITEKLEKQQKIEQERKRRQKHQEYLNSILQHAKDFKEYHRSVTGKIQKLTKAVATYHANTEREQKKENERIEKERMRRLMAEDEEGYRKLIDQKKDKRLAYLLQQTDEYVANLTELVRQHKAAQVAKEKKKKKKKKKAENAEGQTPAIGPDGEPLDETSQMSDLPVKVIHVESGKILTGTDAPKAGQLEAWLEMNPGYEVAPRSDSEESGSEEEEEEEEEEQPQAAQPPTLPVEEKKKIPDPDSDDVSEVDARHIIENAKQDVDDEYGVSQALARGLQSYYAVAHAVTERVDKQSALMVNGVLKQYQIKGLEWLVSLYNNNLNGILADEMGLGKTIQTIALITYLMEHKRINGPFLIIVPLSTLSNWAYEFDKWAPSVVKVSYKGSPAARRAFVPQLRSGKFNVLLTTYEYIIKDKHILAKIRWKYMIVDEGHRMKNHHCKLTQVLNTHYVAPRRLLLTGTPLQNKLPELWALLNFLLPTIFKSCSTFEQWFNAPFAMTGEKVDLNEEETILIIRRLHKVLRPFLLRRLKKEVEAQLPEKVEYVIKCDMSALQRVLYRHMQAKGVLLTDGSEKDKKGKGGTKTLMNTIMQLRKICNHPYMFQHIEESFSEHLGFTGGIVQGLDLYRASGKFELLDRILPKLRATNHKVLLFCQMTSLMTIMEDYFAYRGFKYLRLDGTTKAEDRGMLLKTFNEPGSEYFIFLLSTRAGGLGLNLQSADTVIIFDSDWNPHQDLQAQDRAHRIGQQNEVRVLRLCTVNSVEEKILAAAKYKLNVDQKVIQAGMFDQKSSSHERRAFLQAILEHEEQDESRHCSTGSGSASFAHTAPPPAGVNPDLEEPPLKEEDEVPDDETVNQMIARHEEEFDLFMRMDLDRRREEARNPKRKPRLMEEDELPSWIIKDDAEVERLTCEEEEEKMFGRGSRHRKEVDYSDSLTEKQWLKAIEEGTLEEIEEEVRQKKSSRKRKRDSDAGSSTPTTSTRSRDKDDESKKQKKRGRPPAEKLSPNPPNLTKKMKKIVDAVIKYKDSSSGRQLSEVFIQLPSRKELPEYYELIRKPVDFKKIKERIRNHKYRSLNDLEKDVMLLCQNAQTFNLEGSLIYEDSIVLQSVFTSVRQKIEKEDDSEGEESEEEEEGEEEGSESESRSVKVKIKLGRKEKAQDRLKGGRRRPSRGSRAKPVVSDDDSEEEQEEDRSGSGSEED
# T1 sequence (P51531 whole entry, species assumed): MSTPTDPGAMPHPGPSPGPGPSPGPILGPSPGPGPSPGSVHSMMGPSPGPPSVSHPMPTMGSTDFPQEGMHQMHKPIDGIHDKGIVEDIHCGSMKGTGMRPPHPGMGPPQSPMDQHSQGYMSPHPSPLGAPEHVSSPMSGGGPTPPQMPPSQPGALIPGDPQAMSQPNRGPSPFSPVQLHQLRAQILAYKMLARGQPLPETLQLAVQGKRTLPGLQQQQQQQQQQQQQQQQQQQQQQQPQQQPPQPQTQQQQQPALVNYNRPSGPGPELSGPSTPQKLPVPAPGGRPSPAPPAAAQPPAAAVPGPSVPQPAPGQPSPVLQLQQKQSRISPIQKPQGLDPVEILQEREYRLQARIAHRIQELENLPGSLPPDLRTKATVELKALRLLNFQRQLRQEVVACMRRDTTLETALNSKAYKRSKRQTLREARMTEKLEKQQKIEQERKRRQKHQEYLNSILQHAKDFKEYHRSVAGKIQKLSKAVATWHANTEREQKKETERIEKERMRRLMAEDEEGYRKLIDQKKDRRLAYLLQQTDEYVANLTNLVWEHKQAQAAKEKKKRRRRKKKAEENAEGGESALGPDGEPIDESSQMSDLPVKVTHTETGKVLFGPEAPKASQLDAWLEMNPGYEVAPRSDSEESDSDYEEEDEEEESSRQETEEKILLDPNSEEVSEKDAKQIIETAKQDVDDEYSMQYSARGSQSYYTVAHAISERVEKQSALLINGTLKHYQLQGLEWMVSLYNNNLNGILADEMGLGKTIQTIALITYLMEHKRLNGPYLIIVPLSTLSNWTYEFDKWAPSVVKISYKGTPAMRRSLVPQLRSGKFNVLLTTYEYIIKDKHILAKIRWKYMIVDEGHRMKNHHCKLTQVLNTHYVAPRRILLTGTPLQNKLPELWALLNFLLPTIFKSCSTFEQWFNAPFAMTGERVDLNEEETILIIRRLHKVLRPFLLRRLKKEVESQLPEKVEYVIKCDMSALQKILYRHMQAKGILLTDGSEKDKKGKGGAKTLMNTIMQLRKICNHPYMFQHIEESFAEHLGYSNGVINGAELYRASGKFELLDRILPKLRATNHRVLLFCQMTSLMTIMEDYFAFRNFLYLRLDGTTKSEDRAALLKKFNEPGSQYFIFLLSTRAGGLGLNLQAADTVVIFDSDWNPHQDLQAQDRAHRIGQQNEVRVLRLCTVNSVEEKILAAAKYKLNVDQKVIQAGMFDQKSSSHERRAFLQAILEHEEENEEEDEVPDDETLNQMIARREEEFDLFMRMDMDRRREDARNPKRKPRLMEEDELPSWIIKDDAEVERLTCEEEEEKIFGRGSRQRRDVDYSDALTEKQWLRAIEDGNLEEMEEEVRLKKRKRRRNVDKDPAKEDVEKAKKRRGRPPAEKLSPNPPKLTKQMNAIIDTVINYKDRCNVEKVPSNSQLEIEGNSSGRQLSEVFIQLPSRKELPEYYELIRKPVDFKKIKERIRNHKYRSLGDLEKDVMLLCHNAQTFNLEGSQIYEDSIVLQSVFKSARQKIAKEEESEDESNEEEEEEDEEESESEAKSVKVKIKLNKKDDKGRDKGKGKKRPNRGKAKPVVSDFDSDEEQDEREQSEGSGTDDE
Compound,DC50 (SMARCA2),Dmax (SMARCA2),Fold Selectivity SMARCA4/2 (SMARCA2),DC50 (SMARCA4),Dmax (SMARCA4)
"O=C1CC[C@H](c2ccc(N3CCC(CN4CCC5(CC4)CN(C(=O)C4(c6ccccc6)CCN(c6cnnc(-c7ccccc7O)c6)CC4)C5)CC3)nc2)C(=O)N1 [Example 189, (3R)-3-(6-{4-[(2-{1-[6-(2-hydroxyphenyl)pyridazin-4-yl]-4-phenylpiperidine-4-carbonyl}-2,7-diazaspiro[3.5]nonan-7-yl)methyl]piperidin-1-yl}pyridin-3-yl)piperidine-2,6-dione]",1.7 nM,93%,9,15.6 nM,81.8%
"COc1ccccc1C1(C(=O)N(C)C2CCN(CCC3CCN(c4ccc([C@H]5CCC(=O)NC5=O)c(F)c4)CC3)CC2)CCN(c2cnnc(-c3ccccc3O)c2)CC1 [Example 85, N-{1-[2-(1-{4-[(3R)-2,6-dioxopiperidin-3-yl]-3-fluorophenyl}piperidin-4-yl)ethyl]piperidin-4-yl}-1-[6-(2-hydroxyphenyl)pyridazin-4-yl]-4-(2-methoxyphenyl)-N-methylpiperidine-4-carboxamide]",8.19 nM,90.9%,1220,–,41.9%
"COC1(C(=O)NCC2(c3ccccc3)CCN(c3cnnc(-c4ccccc4O)c3)CC2)CCN(CCC2CCN(c3ccc([C@H]4CCC(=O)NC4=O)cc3)CC2)CC1 (racemic) [Example 83, rac-(r)-1-(2-(1-(4-(2,6-dioxopiperidin-3-yl)phenyl)piperidin-4-yl)ethyl)-n-((1-(6-(2-hydroxyphenyl)pyridazin-4-yl)-4-phenylpiperidin-4-yl)methyl)-4-methoxypiperidine-4-carboxamide]",2.3 nM,91.8%,9,20.2 nM,73.3%
"O=C1CCC(c2ccc(N3CCC(C(=O)N4CC5(C4)CN(C(=O)C4(c6ccccc6)CCN(c6cnnc(-c7ccccc7O)c6)CC4)C5)CC3)cc2)C(=O)N1 (racemic) [Example 20, rac-(3R)-3-{4-[4-(6-{1-[6-(2-hydroxyphenyl)pyridazin-4-yl]-4-phenylpiperidine-4-carbonyl}-2,6-diazaspiro[3.3]heptane-2-carbonyl)piperidin-1-yl]phenyl}piperidine-2,6-dione]",24.6 nM,67.5%,406.6,–,48.3%
"O=C1CC[C@H](c2ccc(N3CCC(CCN4CCC(N(C(=O)C5(c6ccccc6)CCN(c6cnnc(-c7ccccc7O)c6)CC5)C5CC5)CC4)CC3)cc2)C(=O)N1 [Example 74, N-cyclopropyl-N-{1-[2-(1-{4-[(3r)-2,6-dioxopiperidin-3-yl]phenyl}piperidin-4-yl)ethyl]piperidin-4-yl}-1-[6-(2-hydroxyphenyl)pyridazin-4-yl]-4-phenylpiperidine-4-carboxamide]",1.88 nM,94.2%,32,59.3 nM,69.2%

# Other lines, results leading:
DC50 (SMARCA2),Dmax (SMARCA2),Fold Selectivity SMARCA4/2 (SMARCA2),DC50 (SMARCA4),Dmax (SMARCA4),Compound
0.18 nM,96.7%,19,3.49 nM,86.8%,"Cc1ccnn1C1(C(=O)N(C)C2CCN(CCC3CCN(c4cccc5c4n(C)c(=O)n5C4CCC(=O)NC4=O)CC3)CC2)CCN(c2cnnc(-c3ccccc3O)c2)CC1 (racemic) [Example 61, rac-N-{1-[2-(1-{1-[(3R)-2,6-dioxopiperidin-3-yl]-3-methyl-2-oxo-2,3-dihydro-1H-1,3-benzodiazol-4-yl}piperidin-4-yl)ethyl]piperidin-4-yl}-1-[6-(2-hydroxyphenyl)pyridazin-4-yl]-n-methyl-4-(5-methyl-1H-pyrazol-1-yl)piperidine-4-carboxamide]"
0.38 nM,89.5%,4,1.45 nM,82.2%,"Cn1c(=O)n(C2CCC(=O)NC2=O)c2ccc(N3CCC(CN4CCC5(CC4)CN(C(=O)C4(c6ccccc6)CCN(c6cnnc(-c7ccccc7O)c6)CC4)C5)CC3)cc21 (racemic) [Example 159, rac-(3R)-3-(5-{4-[(2-{1-[6-(2-hydroxyphenyl)pyridazin-4-yl]-4-phenylpiperidine-4-carbonyl}-2,7-diazaspiro[3.5]nonan-7-yl)methyl]piperidin-1-yl}-3-methyl-2-oxo-2,3-dihydro-1H-1,3-benzodiazol-1-yl)piperidine-2,6-dione]"
9.53 nM,83.5%,1049,–,24.7%,"C[C@H]1C[C@H](NC(=O)C2(c3ccccc3)CCN(c3cnnc(-c4ccccc4O)c3)CC2)CCN1C(=O)CN1CCC(c2ccc([C@H]3CCC(=O)NC3=O)cc2)CC1 (racemic) [Example 76, n-((2s,4r)-1-(2-(4-(4-((rs)-2,6-dioxopiperidin-3-yl)phenyl)piperidin-1-yl)acetyl)-2-methylpiperidin-4-yl)-1-(6-(2-hydroxyphenyl)pyridazin-4-yl)-4-phenylpiperidine-4-carboxamide]"
–,54.2%,1,–,17.5%,"C[C@@H](Oc1ccc(C2CCC(=O)NC2=O)cc1)C1CCN(C(=O)C2(c3ccccc3)CCN(c3cnnc(-c4ccccc4O)c3)CC2)CC1 (mixture of isomers) [Example 3, (3RS)-3-{4-[(1R)-1-(1-{1-[6-(2-hydroxyphenyl)pyridazin-4-yl]-4-phenylpiperidine-4-carbonyl}piperidin-4-yl)ethoxy]phenyl}piperidine-2,6-dione]"
22.1 nM,70.5%,452,–,53.7%,"CC1(NC(=O)C2(c3ccccc3)CCN(c3cnnc(-c4ccccc4O)c3)CC2)CCN(C(=O)CN2CCC(c3ccc(N[C@@H]4CCC(=O)NC4=O)cc3)CC2)CC1 (racemic) [Example 86, rac-(r)-n-(1-(2-(4-(4-((2,6-dioxopiperidin-3-yl)amino)phenyl)piperidin-1-yl)acetyl)-4-methylpiperidin-4-yl)-1-(6-(2-hydroxyphenyl)pyridazin-4-yl)-4-phenylpiperidine-4-carboxamide]"

# From patent publication US20250051344A1, “BIFUNCTIONAL SELECTIVE DEGRADERS OF SMARCA2 AND THERAPEUTIC USES THEREOF” (Nurix Therapeutics, Inc., priority 2023, published 2025)
